Reference: ChEMBL document CHEMBL5512677, “Site-Specific Antimicrobial Activity of a Dual-Responsive Ciprofloxacin Prodrug” (J Med Chem, 2024)
Converted amounts (≈) assume the structure as drawn. The source made the active and inactive calls. No cut-off for these calls is given here.

Legend:
[1] = system: Escherichia coli; experiment: Antibacterial activity against Escherichia coli HB101 assessed as reduction in bacterial growth by measuring minimum inhibitory concentration incubated for 16 to 20 hrs by serial dilution method; type: functional; details: time 16-20 hrs
[2] = system: Staphylococcus aureus; experiment: Antibacterial activity against Staphylococcus aureus BB255 assessed as reduction in bacterial growth by measuring minimum inhibitory concentration incubated for 16 to 20 hrs by serial dilution method; type: functional; details: time 16-20 hrs
[3] = system: Escherichia coli; experiment: Antibacterial activity against Escherichia coli E38 assessed as reduction in bacterial growth by measuring minimum inhibitory concentration incubated for 16 to 20 hrs by serial dilution method; type: functional; details: time 16-20 hrs
[4] = system: Escherichia coli; experiment: Antibacterial activity against Escherichia coli HB101 assessed as reduction in bacterial growth by measuring minimum bactericidal concentration incubated for 16 to 20 hrs by serial dilution method; type: functional; details: time 16-20 hrs
[5] = system: Staphylococcus aureus; experiment: Antibacterial activity against Staphylococcus aureus BB255 assessed as reduction in bacterial growth by measuring minimum bactericidal concentration incubated for 16 to 20 hrs by serial dilution method; type: functional; details: time 16-20 hrs
[6] = system: Escherichia coli; experiment: Antibacterial activity against Escherichia coli E38 assessed as reduction in bacterial growth by measuring minimum bactericidal concentration incubated for 16 to 20 hrs by serial dilution method; type: functional; details: time 16-20 hrs
[7] = system: Escherichia coli; experiment: Antibacterial activity against Escherichia coli E38 assessed as reduction in bacterial growth pre-triggered with nitroreductase for 1 hr followed by bacterial infection and measured after 16 hrs by spectrometer; type: functional; details: time 17 hrs
[8] = Prodrug activation in phosphate buffer saline assessed as Escherichia coli nitroreductase mediated ciprofloxacin metabolite formation measured after 5 mins in presence of NADH by HPLC analysis; type: ADME; details: isolated protein
[9] = Prodrug activation in phosphate buffer saline assessed as Escherichia coli nitroreductase mediated ciprofloxacin metabolite formation measured upto 60 mins in presence of NADH by HPLC analysis; type: ADME; details: isolated protein, 1 h
[10] = Prodrug activation in phosphate buffer saline assessed as Escherichia coli nitroreductase mediated ciprofloxacin metabolite formation measured after 60 mins in presence of NADH by HPLC analysis; type: ADME; details: isolated protein, 1 h
[11] = Retention time of the compound by HPLC analysis; type: physicochemical
[12] = system: Escherichia coli; experiment: Antibacterial activity against Escherichia coli E38 harboring high NTR expression and H2S assessed as reduction in bacterial survival incubated for 16 hrs by spectrometric analysis; type: functional, organism-based
[13] = system: Escherichia coli; experiment: Antibacterial activity against Escherichia coli E38 assessed as reduction in bacterial survival rate pre-triggered with nitroreductase for 1 hr followed by bacterial infection and measured after 16 hrs by spectrometer; type: functional, organism-based; details: time 17.0 hrs
[14] = system: Escherichia coli; experiment: Antibacterial activity against Escherichia coli E38 infected in female Swiss Webster mouse skin abscess model assessed as log reduction in bacterial load at 20 mg/kg, sc measured after 3 days relative to control; type: functional; details: time 3 day
[15] = system: Escherichia coli; experiment: Antibacterial activity against Escherichia coli HB101 at 0.5 to 2 times MIC measured after 30 days by broth microdilution method; type: functional, organism-based; details: time 30.0 day
[16] = Prodrug activation in phosphate buffer saline assessed as Escherichia coli nitroreductase mediated intermediate formation measured after 60 mins in presence of NADH and 10 ug/ml of NTR by HPLC analysis; details: isolated protein, 1 h
[17] = system: Escherichia coli; experiment: Antibacterial activity against Escherichia coli E38 assessed as reduction in bacterial survival rate by measuring fold reduction in MIC pre-triggered with nitroreductase for 1 hr followed by bacterial infection and measured after 16 hrs by spectrometer; type: functional; details: time 17 hrs
[18] = system: Escherichia coli; experiment: Antibacterial activity against Escherichia coli E38 assessed as reduction in bacterial growth pre-triggered with H2S for 1 hr followed by bacterial infection and measured after 16 hrs by spectrometer; type: functional; details: time 17 hrs
[19] = system: Escherichia coli; experiment: Antibacterial activity against Escherichia coli E38 assessed as reduction in bacterial growth pre-triggered with nitroreductase and H2S for 1 hr followed by bacterial infection and measured after 16 hrs by spectrometer; type: functional; details: time 17 hrs
[20] = Prodrug activation in phosphate buffer saline assessed as Escherichia coli nitroreductase mediated ciprofloxacin metabolite formation measured after 120 mins in presence of NADH by HPLC analysis; type: ADME; details: isolated protein, 2 h
[21] = Prodrug activation in phosphate buffer saline assessed as Escherichia coli nitroreductase mediated ciprofloxacin metabolite formation by measuring retention time measured after 180 mins in presence of NADH by HPLC analysis; type: ADME; details: isolated protein, 3 h
[22] = system: Escherichia coli; experiment: Antibacterial activity against Escherichia coli E38 assessed as reduction in bacterial survival rate pre-triggered with nitroreductase and NaSH for 1 hr followed by bacterial infection and measured after 16 hrs by spectrometer; type: functional, organism-based; details: time 17.0 hrs
[23] = system: Escherichia coli; experiment: Antibacterial activity against Escherichia coli E38 assessed as reduction in bacterial survival rate pre-triggered with NaSH for 1 hr followed by bacterial infection and measured after 16 hrs by spectrometer; type: functional, organism-based; details: time 17.0 hrs
[24] = system: Escherichia coli; experiment: Antibacterial activity against Escherichia coli E38 infected in female Swiss Webster mouse skin abscess model assessed as reduction in bacterial load at 20 mg/kg, sc measured after 3 days; type: functional, organism-based; details: time 3.0 day
[25] = system: Escherichia coli; experiment: Antibacterial activity against Escherichia coli HB101 at 0.5 to 2 times MIC measured after 27 days by broth microdilution method; type: functional, organism-based; details: time 27.0 day
[26] = system: Escherichia coli; experiment: Antibacterial activity against Escherichia coli E38 assessed as reduction in bacterial survival rate by measuring fold reduction in MIC pre-triggered with H2S for 1 hr followed by bacterial infection and measured after 16 hrs by spectrometer; type: functional; details: time 17 hrs

Row | Compound | MIC [1] [µg/mL] | MIC [2] [µg/mL] | MIC [3] [µg/mL] | MBC [4] [µg/mL] | MBC [5] [µg/mL] | MBC [6] [µg/mL] | MIC [7] [µg/mL] | Drug metabolism [9] | Retention_time [11] [min] | Activity [12] | Activity [13] | log(activity) [14] | Activity [15] | MIC [18] [µg/mL] | MIC [19] [µg/mL] | Activity [22] | Activity [23] | other results
1 | O=C(OCc1ccc([N+](=O)[O-])cc1)c1cn(C2CC2)c2cc(N3CCNCC3)c(F)cc2c1=O | 0.5 (≈ 1.07 µM) | 16 (≈ 34.3 µM) | 1 (≈ 2.14 µM) | 1 (≈ 2.14 µM) | > 128 | 2 (≈ 4.29 µM) | 0.063 (≈ 0.135 µM) | Metabolite_Detected | 4.7 | inactive | Active | 2 | Active |  |  |  |  | Drug metabolism [8]: Metabolite_Detected; Drug metabolism [10]: Metabolite_Notdetected; Drug metabolism [16]: Metabolite_Notdetected; fold change (FC) [17]: 16
2 | [N-]=[N+]=Nc1ccc(COC(=O)N2CCN(c3cc4c(cc3F)c(=O)c(C(=O)OCc3ccc([N+](=O)[O-])cc3)cn4C3CC3)CC2)cc1 | 32 (≈ 49.9 µM) | > 128 | > 16 | 32 (≈ 49.9 µM) | > 128 | > 128 | > 16 |  | 15.2 | inactive | inactive | 2 | Active | 2 (≈ 3.12 µM) | 0.25 (≈ 0.39 µM) | Active |  | Drug metabolism [20]: Metabolite_Detected; Retention_time [21]: 2.2 min
3 | O=C(O)c1cn(C2CC2)c2cc(N3CCNCC3)c(F)cc2c1=O [CIPROFLOXACIN] |  | 0.25 (≈ 0.754 µM) |  | 0.004 (≈ 0.0121 µM) | 0.5 (≈ 1.51 µM) | 0.015 (≈ 0.0453 µM) |  |  |  |  | Active |  |  |  |  |  |  | 
4 | C[C@H](NC(=O)c1cn(C2CC2)c2cc(N3CCNCC3)c(F)cc2c1=O)c1ccc([N+](=O)[O-])cc1 | 1 (≈ 2.09 µM) |  | 4 (≈ 8.34 µM) | 1 (≈ 2.09 µM) |  | 4 (≈ 8.34 µM) | 4 (≈ 8.34 µM) | Metabolite_Notdetected |  | inactive | inactive |  |  | 4 (≈ 8.34 µM) | 4 (≈ 8.34 µM) | inactive | inactive | Activity [24]: Active
5 | [N-]=[N+]=Nc1ccc(COC(=O)N2CCN(c3cc4c(cc3F)c(=O)c(C(=O)O)cn4C3CC3)CC2)cc1 | 0.5 (≈ 0.987 µM) | 4 (≈ 7.9 µM) | 1 (≈ 1.97 µM) | 0.5 (≈ 0.987 µM) | > 128 | 2 (≈ 3.95 µM) |  |  | 12.4 | inactive |  | 2 |  | 0.063 (≈ 0.124 µM) |  |  | Active | Activity [25]: inactive; fold change (FC) [26]: 16
